Assay results from the supplement of paper PMC10307832.

Assays:
Experiment in all cases: relative viability (nuclei count vs DMSO), 5 days (fraction); higher = more cells survive
NCI-H1623 = system: NCI-H1623
Procedure, shortened: (§1)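 The day after seeding in 1536-well plates, lung cancer cell lines were treated by pin tool with a single drug, or with a fixed anchor-drug dose together with five library-drug doses (not always all listed) in √10 steps. After 5 days, a combined fix-and-stain solution (final 0.05% Triton X-100, 1% formaldehyde, 1 ug/ml Hoechst) was added. Nuclei counted on 4× images gave relative viability as treated counts over vehicle counts, reported as the median of duplicate plates.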

A549 = system: A549
Procedure, shortened: as §1

NCI-H1299 = system: NCI-H1299
Procedure, shortened: as §1

SK-MES-1 = system: SK-MES-1
Procedure, shortened: as §1

Calu-6 = system: Calu-6
Procedure, shortened: as §1

ChaGo-K-1 = system: ChaGo-K-1
Procedure, shortened: as §1

IA-LM = system: IA-LM
Procedure, shortened: as §1

NCI-H1703 = system: NCI-H1703
Procedure, shortened: as §1

NCI-H1651 = system: NCI-H1651
Procedure, shortened: as §1

EBC-1 = system: EBC-1
Procedure, shortened: as §1

Question: Which results are given for `Oc1nc(-c2ccc(C(F)(F)F)cc2)nc2c1CSCC2` [XAV939] + COc1cc2c(Oc3ccc(NC(=O)C4(C(=O)Nc5ccc(F)cc5)CC4)cc3F)ccnc2cc1OCCCN1CCOCC1 [Foretinib] (partner 0.25 µM)?
Answer: relative viability (NCI-H1623; first compound 0.08 µM): 0.826; relative viability (NCI-H1623; first compound 0.253 µM): 0.75; relative viability (NCI-H1623; first compound 0.8 µM): 0.703; relative viability (NCI-H1623; first compound 2.53 µM): 0.677; relative viability (A549; first compound 0.08 µM): 0.992; relative viability (A549; first compound 0.8 µM): 0.883; relative viability (A549; first compound 2.53 µM): 0.9; relative viability (NCI-H1299; first compound 0.08 µM): 1.13; relative viability (NCI-H1299; first compound 0.253 µM): 1.11; relative viability (NCI-H1299; first compound 0.8 µM): 1.07; relative viability (NCI-H1299; first compound 2.53 µM): 1.08; relative viability (SK-MES-1; first compound 0.08 µM): 1.02; relative viability (SK-MES-1; first compound 0.253 µM): 0.841; relative viability (SK-MES-1; first compound 0.8 µM): 0.864; relative viability (SK-MES-1; first compound 2.53 µM): 0.82; relative viability (Calu-6; first compound 0.08 µM): 0.88; relative viability (Calu-6; first compound 0.253 µM): 0.704; relative viability (Calu-6; first compound 0.8 µM): 0.776; relative viability (Calu-6; first compound 2.53 µM): 0.819; relative viability (ChaGo-K-1; first compound 0.08 µM): 0.874; relative viability (ChaGo-K-1; first compound 0.253 µM): 1.01; relative viability (ChaGo-K-1; first compound 0.8 µM): 0.812; relative viability (ChaGo-K-1; first compound 2.53 µM): 0.773; relative viability (IA-LM; first compound 0.08 µM): 1.29; relative viability (IA-LM; first compound 0.253 µM): 0.968; relative viability (IA-LM; first compound 0.8 µM): 1.09; relative viability (IA-LM; first compound 2.53 µM): 0.729; relative viability (NCI-H1703; first compound 0.08 µM): 0.348; relative viability (NCI-H1703; first compound 0.253 µM): 0.377; relative viability (NCI-H1703; first compound 0.8 µM): 0.416; relative viability (NCI-H1703; first compound 2.53 µM): 0.374; relative viability (NCI-H1651; first compound 0.08 µM): 0.786; relative viability (NCI-H1651; first compound 0.253 µM): 0.705; relative viability (NCI-H1651; first compound 0.8 µM): 0.826; relative viability (NCI-H1651; first compound 2.53 µM): 0.768; relative viability (EBC-1; first compound 0.08 µM): 0.108; relative viability (EBC-1; first compound 0.253 µM): 0.113; relative viability (EBC-1; first compound 0.8 µM): 0.106; relative viability (EBC-1; first compound 2.53 µM): 0.0948
